Assay results published in the supplement of paper PMC10307832.

Key:
Assay in all cases: relative viability (nuclei count vs DMSO), 5 days (fraction); higher = more cells survive
Vismodegib + Olaparib = compound: CS(=O)(=O)c1ccc(C(=O)Nc2ccc(Cl)c(-c3ccccn3)c2)c(Cl)c1 [Vismodegib] + O=C(c1cc(Cc2n[nH]c(=O)c3ccccc23)ccc1F)N1CCN(C(=O)C2CC2)CC1 [Olaparib] (partner 8 µM)
Procedure, shortened: (§1)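 Relative viability was taken as the ratio of nuclei in treated wells to nuclei in vehicle wells. Lung cancer cell lines in 1536-well plates received compounds by pin tool one day after seeding, either one drug alone or a fixed anchor-drug dose plus five library-drug doses (not always all listed) in √10 steps. Nuclei were counted on 4× images after 5 days of treatment, and values are medians of duplicate plates.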

Vismodegib + Pemetrexed = compound: CS(=O)(=O)c1ccc(C(=O)Nc2ccc(Cl)c(-c3ccccn3)c2)c(Cl)c1 [Vismodegib] + Nc1nc2[nH]cc(CCc3ccc(C(=O)N[C@@H](CCC(=O)O)C(=O)O)cc3)c2c(=O)[nH]1 [Pemetrexed] (partner 0.2 µM)
Procedure, shortened: as §1

VE-821 + Olaparib = compound: CS(=O)(=O)c1ccc(-c2cnc(N)c(C(=O)Nc3ccccc3)n2)cc1 [VE-821] + O=C(c1cc(Cc2n[nH]c(=O)c3ccccc23)ccc1F)N1CCN(C(=O)C2CC2)CC1 [Olaparib] (partner 8 µM)
Procedure, shortened: as §1

Vismodegib + Phenformin = compound: CS(=O)(=O)c1ccc(C(=O)Nc2ccc(Cl)c(-c3ccccn3)c2)c(Cl)c1 [Vismodegib] + N=C(N)NC(=N)NCCc1ccccc1 [Phenformin] (partner 250 µM)
Procedure, shortened: as §1

Cell Line | relative viability (Vismodegib + Olaparib; first compound 0.08 µM) | relative viability (Vismodegib + Olaparib; first compound 0.253 µM) | relative viability (Vismodegib + Olaparib; first compound 0.8 µM) | relative viability (Vismodegib + Olaparib; first compound 2.53 µM) | relative viability (Vismodegib + Olaparib; first compound 8 µM) | relative viability (Vismodegib + Pemetrexed; first compound 0.08 µM) | relative viability (Vismodegib + Pemetrexed; first compound 0.253 µM) | relative viability (Vismodegib + Pemetrexed; first compound 0.8 µM) | relative viability (Vismodegib + Pemetrexed; first compound 2.53 µM) | relative viability (Vismodegib + Pemetrexed; first compound 8 µM) | relative viability (VE-821 + Olaparib; first compound 0.08 µM) | relative viability (VE-821 + Olaparib; first compound 0.253 µM) | relative viability (VE-821 + Olaparib; first compound 0.8 µM) | relative viability (VE-821 + Olaparib; first compound 2.53 µM) | relative viability (VE-821 + Olaparib; first compound 8 µM) | relative viability (Vismodegib + Phenformin; first compound 0.08 µM) | relative viability (Vismodegib + Phenformin; first compound 0.253 µM) | relative viability (Vismodegib + Phenformin; first compound 0.8 µM) | relative viability (Vismodegib + Phenformin; first compound 2.53 µM) | relative viability (Vismodegib + Phenformin; first compound 8 µM)
NCI-H2228 | 0.596 | 0.796 | 0.56 | 0.502 | 0.477 | 0.342 | 0.401 | 0.291 | 0.316 | 0.333 | 0.506 | 0.625 | 0.641 | 0.534 | 0.222 | 0.387 | 0.452 | 0.301 | 0.296 | 0.314
NCI-H1944 | 0.414 | 0.404 | 0.398 | – | 0.441 | 0.625 | 0.696 | 0.611 | – | 0.629 | 0.434 | 0.417 | 0.356 | 0.366 | 0.225 | 0.192 | 0.207 | 0.205 | 0.197 | 0.216
NCI-H441 | 0.561 | – | 0.579 | 0.55 | 0.55 | 0.247 | – | 0.246 | 0.247 | 0.283 | 0.6 | 0.643 | 0.584 | 0.469 | 0.247 | 0.838 | 0.648 | 0.831 | 0.835 | 0.907
NCI-H1437 | 0.633 | 0.607 | 0.653 | 0.63 | 0.598 | 0.297 | 0.308 | 0.339 | 0.288 | 0.316 | 0.66 | 0.739 | 0.628 | 0.525 | 0.386 | 0.296 | 0.309 | 0.291 | 0.333 | 0.289
